What was measured:
Experiment in all cases: KINOMEscan competition binding
Settings in all cases: compound 10.0 µM
[1] = molecular target: BRAF (human) (UniProt P15056)
[2] = molecular target: BTK (human) (UniProt Q06187)
[3] = molecular target: CDKL1 (human) (UniProt Q00532)
[4] = molecular target: CDKL3 (human) (UniProt Q8IVW4)
[5] = molecular target: CRK2 (P.falciparum) (UniProt P61075)
[6] = molecular target: DDR1 (human) (UniProt Q08345)
[7] = molecular target: DYRK2 (human) (UniProt Q92630)
[8] = system: EGFR (human), P00533 [G719S]
[9] = system: EGFR (human), P00533 [L861Q]
[10] = molecular target: EIF2AK1 (human) (UniProt Q9BQI3)
[11] = molecular target: GRK1 (human) (UniProt Q15835)
[12] = molecular target: GRK4 (human) (UniProt P32298)
[13] = molecular target: GRK7 (human) (UniProt Q8WTQ7)
[14] = molecular target: HIPK2 (human) (UniProt Q9H2X6)
[15] = molecular target: HIPK3 (human) (UniProt Q9H422)
[16] = molecular target: ICK (human) (UniProt Q9UPZ9)
[17] = molecular target: IRAK1 (human) (UniProt P51617)
[18] = molecular target: KIT (human) (UniProt P10721)
[19] = molecular target: LRRK2 (human) (UniProt Q5S007)
[20] = molecular target: MAP2K5 (human) (UniProt Q13163)
[21] = molecular target: MAP2K7 (human) (UniProt O14733)
[22] = molecular target: MAP3K6 (human) (UniProt O95382)
[23] = molecular target: MAST1 (human) (UniProt Q9Y2H9)
[24] = molecular target: MATK (human) (UniProt P42679)
[25] = molecular target: NIM1 (human) (UniProt Q8IY84)
[26] = molecular target: PIK3C2G (human) (UniProt O75747)
[27] = molecular target: PIK3CA (human) (UniProt P42336)
[28] = system: PIK3CA (human), P42336 [C420R]
[29] = system: PIK3CA (human), P42336 [E545K]
[30] = system: PIK3CA (human), P42336 [I800L]
[31] = molecular target: PIK3CG (human) (UniProt P48736)
[32] = molecular target: PLK2 (human) (UniProt Q9NYY3)
[33] = molecular target: PRKCI (human) (UniProt P41743)
[34] = molecular target: SIK3 (human) (UniProt Q9Y2K2)
[35] = molecular target: SNRK (human) (UniProt Q9NRH2)
[36] = molecular target: STK38 (human) (UniProt Q15208)
[37] = molecular target: TAOK2 (human) (UniProt Q9UL54)
[38] = molecular target: TIE1 (human) (UniProt P35590)
[39] = molecular target: VRK2 (human) (UniProt Q86Y07)
[40] = molecular target: CDK4 CCND3 (human) (UniProt P11802+P30281)

Sequence of LRRK2 (human) (Q5S007 whole entry, looked up): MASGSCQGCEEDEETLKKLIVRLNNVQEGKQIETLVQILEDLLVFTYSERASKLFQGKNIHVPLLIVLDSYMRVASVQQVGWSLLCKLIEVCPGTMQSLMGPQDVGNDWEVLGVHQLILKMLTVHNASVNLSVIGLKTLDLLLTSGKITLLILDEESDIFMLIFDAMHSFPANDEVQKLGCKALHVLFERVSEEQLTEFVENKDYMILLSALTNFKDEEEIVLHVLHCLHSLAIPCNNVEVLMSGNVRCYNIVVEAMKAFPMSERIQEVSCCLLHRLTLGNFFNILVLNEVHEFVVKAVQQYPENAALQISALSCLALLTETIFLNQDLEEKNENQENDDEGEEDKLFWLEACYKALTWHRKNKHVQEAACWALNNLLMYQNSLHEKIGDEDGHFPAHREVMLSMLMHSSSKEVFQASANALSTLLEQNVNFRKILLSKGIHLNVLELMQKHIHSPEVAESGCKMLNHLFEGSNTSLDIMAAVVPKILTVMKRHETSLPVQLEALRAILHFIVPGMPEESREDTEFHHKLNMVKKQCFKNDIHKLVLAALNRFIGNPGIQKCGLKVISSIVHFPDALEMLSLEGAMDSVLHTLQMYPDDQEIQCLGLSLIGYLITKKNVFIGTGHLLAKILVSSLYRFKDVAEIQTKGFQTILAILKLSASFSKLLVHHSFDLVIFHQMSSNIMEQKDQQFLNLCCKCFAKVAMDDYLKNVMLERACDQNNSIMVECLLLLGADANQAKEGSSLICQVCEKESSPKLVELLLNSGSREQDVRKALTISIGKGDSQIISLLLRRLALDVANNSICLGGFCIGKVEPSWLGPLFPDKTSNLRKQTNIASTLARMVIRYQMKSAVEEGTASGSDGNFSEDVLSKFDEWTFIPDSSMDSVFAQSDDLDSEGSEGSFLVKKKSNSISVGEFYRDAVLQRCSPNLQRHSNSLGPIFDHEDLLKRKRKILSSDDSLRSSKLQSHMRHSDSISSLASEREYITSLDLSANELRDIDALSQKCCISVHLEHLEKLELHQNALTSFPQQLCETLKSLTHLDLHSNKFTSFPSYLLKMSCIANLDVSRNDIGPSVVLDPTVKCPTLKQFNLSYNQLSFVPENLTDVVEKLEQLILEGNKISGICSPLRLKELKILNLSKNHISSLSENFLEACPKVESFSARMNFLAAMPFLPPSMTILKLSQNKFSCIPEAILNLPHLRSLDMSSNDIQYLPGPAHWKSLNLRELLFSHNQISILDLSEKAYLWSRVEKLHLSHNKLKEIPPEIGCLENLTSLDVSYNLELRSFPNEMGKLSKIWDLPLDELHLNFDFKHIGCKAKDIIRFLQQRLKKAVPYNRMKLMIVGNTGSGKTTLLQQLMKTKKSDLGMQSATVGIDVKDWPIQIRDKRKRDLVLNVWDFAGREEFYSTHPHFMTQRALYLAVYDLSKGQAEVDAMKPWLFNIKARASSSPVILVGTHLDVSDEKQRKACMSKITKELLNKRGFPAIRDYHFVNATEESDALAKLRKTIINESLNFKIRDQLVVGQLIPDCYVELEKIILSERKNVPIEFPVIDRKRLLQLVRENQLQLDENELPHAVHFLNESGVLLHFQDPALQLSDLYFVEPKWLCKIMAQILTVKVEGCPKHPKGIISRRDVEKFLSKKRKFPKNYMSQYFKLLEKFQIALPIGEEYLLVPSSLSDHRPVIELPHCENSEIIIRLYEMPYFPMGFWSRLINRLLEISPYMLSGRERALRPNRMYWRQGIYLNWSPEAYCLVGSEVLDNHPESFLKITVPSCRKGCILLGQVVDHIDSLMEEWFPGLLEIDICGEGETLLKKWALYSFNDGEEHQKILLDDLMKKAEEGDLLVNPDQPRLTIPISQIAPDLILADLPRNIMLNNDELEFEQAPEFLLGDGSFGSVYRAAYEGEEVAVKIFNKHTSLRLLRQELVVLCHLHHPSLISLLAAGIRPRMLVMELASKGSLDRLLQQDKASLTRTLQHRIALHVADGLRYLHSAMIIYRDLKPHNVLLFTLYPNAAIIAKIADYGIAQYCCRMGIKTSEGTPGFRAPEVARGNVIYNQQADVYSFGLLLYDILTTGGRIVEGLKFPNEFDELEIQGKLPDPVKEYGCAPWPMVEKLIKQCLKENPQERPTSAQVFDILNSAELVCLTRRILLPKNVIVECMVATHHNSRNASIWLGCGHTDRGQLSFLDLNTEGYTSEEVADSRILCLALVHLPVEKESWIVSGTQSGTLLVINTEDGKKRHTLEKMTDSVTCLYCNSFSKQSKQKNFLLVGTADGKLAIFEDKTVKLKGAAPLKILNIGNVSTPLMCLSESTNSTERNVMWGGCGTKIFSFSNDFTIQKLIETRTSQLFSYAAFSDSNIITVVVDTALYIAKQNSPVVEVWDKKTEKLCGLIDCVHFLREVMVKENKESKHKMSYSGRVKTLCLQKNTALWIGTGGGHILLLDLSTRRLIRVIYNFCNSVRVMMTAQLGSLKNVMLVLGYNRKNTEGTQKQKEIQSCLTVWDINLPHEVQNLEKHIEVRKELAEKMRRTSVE
Sequence of BTK (human) (Q06187 whole entry, looked up): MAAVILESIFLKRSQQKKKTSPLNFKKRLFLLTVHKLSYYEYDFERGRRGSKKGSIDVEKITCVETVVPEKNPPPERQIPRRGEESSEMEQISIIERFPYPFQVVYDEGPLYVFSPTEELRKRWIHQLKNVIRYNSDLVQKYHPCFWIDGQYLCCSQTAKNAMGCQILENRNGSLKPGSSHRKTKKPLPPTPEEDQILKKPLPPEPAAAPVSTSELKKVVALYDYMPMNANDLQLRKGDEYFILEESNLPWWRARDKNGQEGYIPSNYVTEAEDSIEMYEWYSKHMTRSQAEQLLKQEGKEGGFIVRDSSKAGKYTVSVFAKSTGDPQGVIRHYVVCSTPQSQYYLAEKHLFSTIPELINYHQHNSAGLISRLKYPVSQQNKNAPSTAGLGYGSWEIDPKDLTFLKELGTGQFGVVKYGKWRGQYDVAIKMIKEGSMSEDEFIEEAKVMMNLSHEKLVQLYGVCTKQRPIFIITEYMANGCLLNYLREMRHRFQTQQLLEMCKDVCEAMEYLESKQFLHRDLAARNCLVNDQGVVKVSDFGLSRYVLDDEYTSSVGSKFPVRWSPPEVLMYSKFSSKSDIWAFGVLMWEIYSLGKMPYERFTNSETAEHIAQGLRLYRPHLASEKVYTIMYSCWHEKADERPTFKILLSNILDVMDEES
Sequence of MATK (human) (P42679 whole entry, looked up): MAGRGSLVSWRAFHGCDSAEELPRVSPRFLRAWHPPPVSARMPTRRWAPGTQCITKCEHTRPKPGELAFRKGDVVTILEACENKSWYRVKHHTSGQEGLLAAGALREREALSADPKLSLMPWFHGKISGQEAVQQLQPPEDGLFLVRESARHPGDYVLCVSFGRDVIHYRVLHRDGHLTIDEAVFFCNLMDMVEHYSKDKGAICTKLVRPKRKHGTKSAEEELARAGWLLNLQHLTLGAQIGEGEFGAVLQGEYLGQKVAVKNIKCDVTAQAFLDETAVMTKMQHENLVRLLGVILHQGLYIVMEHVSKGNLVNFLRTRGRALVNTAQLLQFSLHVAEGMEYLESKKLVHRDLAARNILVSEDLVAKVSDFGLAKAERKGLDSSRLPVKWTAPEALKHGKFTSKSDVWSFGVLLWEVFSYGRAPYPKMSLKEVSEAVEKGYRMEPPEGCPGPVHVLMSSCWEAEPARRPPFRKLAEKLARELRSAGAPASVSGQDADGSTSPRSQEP
Sequence of ICK (human) (Q9UPZ9 whole entry, looked up): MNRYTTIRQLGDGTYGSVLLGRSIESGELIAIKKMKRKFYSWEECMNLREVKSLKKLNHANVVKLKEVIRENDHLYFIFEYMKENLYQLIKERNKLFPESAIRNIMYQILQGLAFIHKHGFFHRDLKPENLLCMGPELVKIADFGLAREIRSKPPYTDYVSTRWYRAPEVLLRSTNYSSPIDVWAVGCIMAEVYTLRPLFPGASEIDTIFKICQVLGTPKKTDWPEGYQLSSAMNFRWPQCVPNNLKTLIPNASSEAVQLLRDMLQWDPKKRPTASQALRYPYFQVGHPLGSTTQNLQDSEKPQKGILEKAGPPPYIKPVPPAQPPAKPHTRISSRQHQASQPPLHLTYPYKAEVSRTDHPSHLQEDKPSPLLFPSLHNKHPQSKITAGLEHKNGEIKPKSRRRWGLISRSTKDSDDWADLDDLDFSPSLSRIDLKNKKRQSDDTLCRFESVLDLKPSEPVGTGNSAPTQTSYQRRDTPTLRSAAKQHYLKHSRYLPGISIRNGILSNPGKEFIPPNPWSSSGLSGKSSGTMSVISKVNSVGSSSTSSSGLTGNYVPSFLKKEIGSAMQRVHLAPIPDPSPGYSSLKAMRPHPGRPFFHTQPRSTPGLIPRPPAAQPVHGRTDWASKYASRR
Sequence of MAP2K5 (human) (Q13163 whole entry, looked up): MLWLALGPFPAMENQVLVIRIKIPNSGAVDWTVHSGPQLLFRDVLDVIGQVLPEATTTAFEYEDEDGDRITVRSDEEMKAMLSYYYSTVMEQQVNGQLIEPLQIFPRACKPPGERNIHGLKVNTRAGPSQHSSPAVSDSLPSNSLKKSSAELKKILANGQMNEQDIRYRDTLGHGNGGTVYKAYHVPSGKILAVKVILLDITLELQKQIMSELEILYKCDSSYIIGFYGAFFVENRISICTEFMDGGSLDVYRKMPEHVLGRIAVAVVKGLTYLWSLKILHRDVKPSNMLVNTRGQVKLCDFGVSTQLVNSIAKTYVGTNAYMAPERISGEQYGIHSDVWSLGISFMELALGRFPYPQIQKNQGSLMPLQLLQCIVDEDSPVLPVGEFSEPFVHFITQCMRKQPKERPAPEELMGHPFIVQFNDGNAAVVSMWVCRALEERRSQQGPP
Sequence of CRK2 (P.falciparum) (P61075 whole entry, looked up): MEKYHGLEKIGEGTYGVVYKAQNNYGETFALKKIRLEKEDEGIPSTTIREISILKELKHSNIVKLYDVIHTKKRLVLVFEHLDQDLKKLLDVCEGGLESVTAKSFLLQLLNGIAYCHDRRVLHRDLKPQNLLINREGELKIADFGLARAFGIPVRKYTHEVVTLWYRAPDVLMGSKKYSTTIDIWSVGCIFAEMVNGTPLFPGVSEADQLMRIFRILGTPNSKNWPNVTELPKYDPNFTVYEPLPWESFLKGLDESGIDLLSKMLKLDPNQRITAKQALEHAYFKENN

| SMILES | kinase still bound, per cent of control [2] | kinase still bound, per cent of control [3] | kinase still bound, per cent of control [4] | kinase still bound, per cent of control [5] | kinase still bound, per cent of control [7] | kinase still bound, per cent of control [8] | kinase still bound, per cent of control [10] | kinase still bound, per cent of control [11] | kinase still bound, per cent of control [12] | kinase still bound, per cent of control [13] | kinase still bound, per cent of control [14] | kinase still bound, per cent of control [15] | kinase still bound, per cent of control [16] | kinase still bound, per cent of control [17] | kinase still bound, per cent of control [18] | kinase still bound, per cent of control [19] | kinase still bound, per cent of control [20] | kinase still bound, per cent of control [22] | kinase still bound, per cent of control [23] | kinase still bound, per cent of control [24] | also measured |
| --- | --- | --- | --- | --- | --- | --- | --- | --- | --- | --- | --- | --- | --- | --- | --- | --- | --- | --- | --- | --- | --- |
| COc1cc(N2CCN(C)CC2)ccc1Nc1nc(N)c(C(=O)c2c(Cl)cccc2Cl)s1 | 100% | 88% | 86% | 87% | 89% | 88% | 100% | 100% | 85% | 100% | 66% | 99% | 7.4% | 92% | 100% | 81% | 100% | 100% | 24% | 61% | kinase still bound, per cent of control [1]: 94%; kinase still bound, per cent of control [6]: 98%; kinase still bound, per cent of control [9]: 100%; kinase still bound, per cent of control [21]: 100%; kinase still bound, per cent of control [25]: 80%; kinase still bound, per cent of control [26]: 100%; kinase still bound, per cent of control [27]: 99%; kinase still bound, per cent of control [28]: 100%; kinase still bound, per cent of control [29]: 100%; kinase still bound, per cent of control [30]: 96%; kinase still bound, per cent of control [31]: 86%; kinase still bound, per cent of control [32]: 91%; kinase still bound, per cent of control [33]: 93%; kinase still bound, per cent of control [34]: 76%; kinase still bound, per cent of control [35]: 82%; kinase still bound, per cent of control [36]: 100%; kinase still bound, per cent of control [37]: 8.2%; kinase still bound, per cent of control [38]: 100%; kinase still bound, per cent of control [39]: 100% |
| C=CC(=O)Nc1cc(NC(=O)c2ccc(C)c(NC(=O)c3ccno3)c2)cc(C(F)(F)F)c1 | 100% | 100% | 90% | 98% | 78% | 100% | 100% | 86% | 100% | 100% | 86% | 100% | 75% | 100% | 4.7% | 89% | 80% | 83% | 100% | 100% | kinase still bound, per cent of control [40]: 95%; kinase still bound, per cent of control [6]: 0.1%; kinase still bound, per cent of control [9]: 100%; kinase still bound, per cent of control [21]: 100%; kinase still bound, per cent of control [25]: 98%; kinase still bound, per cent of control [26]: 100%; kinase still bound, per cent of control [27]: 76%; kinase still bound, per cent of control [28]: 82%; kinase still bound, per cent of control [29]: 95%; kinase still bound, per cent of control [30]: 93%; kinase still bound, per cent of control [31]: 76%; kinase still bound, per cent of control [32]: 100%; kinase still bound, per cent of control [33]: 100%; kinase still bound, per cent of control [34]: 82%; kinase still bound, per cent of control [35]: 100%; kinase still bound, per cent of control [36]: 90%; kinase still bound, per cent of control [37]: 87%; kinase still bound, per cent of control [38]: 100%; kinase still bound, per cent of control [39]: 100% |
| C[C@@H](Oc1cc(-n2cnc3ccc(CN4CCN(C)CC4)cc32)sc1C(N)=O)c1ccccc1C(F)(F)F | 100% | 75% | 100% | 100% | 54% | 100% | 94% | 50% | 16% | 33% | 36% | 37% | 85% | 23% | 47% | 60% | 43% | 75% | 3.1% | 52% | kinase still bound, per cent of control [1]: 79%; kinase still bound, per cent of control [40]: 70%; kinase still bound, per cent of control [6]: 100%; kinase still bound, per cent of control [9]: 100%; kinase still bound, per cent of control [21]: 80%; kinase still bound, per cent of control [25]: 30%; kinase still bound, per cent of control [26]: 40%; kinase still bound, per cent of control [27]: 52%; kinase still bound, per cent of control [28]: 55%; kinase still bound, per cent of control [29]: 71%; kinase still bound, per cent of control [30]: 24%; kinase still bound, per cent of control [31]: 6.4%; kinase still bound, per cent of control [32]: 2.6%; kinase still bound, per cent of control [34]: 69%; kinase still bound, per cent of control [35]: 100%; kinase still bound, per cent of control [36]: 71%; kinase still bound, per cent of control [37]: 94%; kinase still bound, per cent of control [39]: 100% |
| CCCS(=O)(=O)Nc1ccc(F)c(C(=O)c2c[nH]c3ncc(-c4ccc(Cl)cc4)cc23)c1F | 93% | 100% | 100% | 97% | 100% | 50% | 60% | 100% | 100% | 93% | 66% | 100% | 73% | 99% | 0.15% | 59% | 0.15% | 100% | 100% | 100% | kinase still bound, per cent of control [1]: 0%; kinase still bound, per cent of control [40]: 82%; kinase still bound, per cent of control [25]: 100%; kinase still bound, per cent of control [26]: 62%; kinase still bound, per cent of control [27]: 94%; kinase still bound, per cent of control [28]: 100%; kinase still bound, per cent of control [29]: 100%; kinase still bound, per cent of control [30]: 93%; kinase still bound, per cent of control [31]: 19%; kinase still bound, per cent of control [32]: 97%; kinase still bound, per cent of control [33]: 100%; kinase still bound, per cent of control [34]: 100%; kinase still bound, per cent of control [35]: 100%; kinase still bound, per cent of control [36]: 100%; kinase still bound, per cent of control [37]: 53%; kinase still bound, per cent of control [38]: 38%; kinase still bound, per cent of control [39]: 100% |

Reference: the kinase profiling compilation of Christmann-Franck et al. (2016)
